# Assay results taken from publication PMC9478491, “Therapeutic effects and mechanisms of N-(9,10-anthraquinone-2-ylcarbonyl) xanthine oxidase inhibitors on hyperuricemia” (Frontiers in Pharmacology, 2022).
# Where “and” joins values, the source holds several entries; their conditions need not be identical. Equal values may be shown once. Read-outs that look alike come from different tables or passages of the source.
# Key:
# mice = test system: mice; design: method as in Izmerov et al., 1982; details: ref Izmerov et al., 1982; cited from earlier work
# rats = test system: rats; design: method as in Izmerov et al., 1982; details: ref Izmerov et al., 1982; cited from earlier work
# [1] = test system: TNF-α, IL-6, IL-1β, NLRP3; assay: TNF-α, IL-6, IL-1β, NLRP3 in HK-2 culture supernatant (ELISA); assay type: cell-based, human; details: HK-2 cells, allopurinol 100 μmol/L, p < 0.01
# From the text: The culture, induction, and administration of hyperuricemia HK-2 cells were the same as described earlier. Finally, the supernatant of the culture medium was collected to detect the levels of inflammatory factors. ELISA kits were used to detect the supernatant TNF-α, IL-6, IL-1β, and NLRP3 levels of the culture medium.
# XOD [2] = assay: Western blot, XOD protein in AML12 cells; assay type: cell-based, mouse; details: allopurinol 100 μmol/L, p < 0.01
# Method: The total protein of HK-2 cells and AML12 cells were extracted with total protein extraction kit, and the concentration was determined by the BCA kit. Electrophoresis, membrane transfer, antibody incubation, and other operations were performed in accordance with the Western blot experiment procedures. The protein bands were quantified by ImageJ software and normalized to individual β-actin expression levels.
# patients = test system: patients; design: method as in Madero et al., 2009; Liu et al., 2016; details: patients taking allopurinol; ref Madero et al., 2009; Liu et al., 2016; cited from earlier work
# [3] = test system: potassium oxonate-induced hyperuricemia mice; assay: Morphology (HE) of renal and liver tissue in hyperuricemia mice; assay type: in vivo, mouse; details: allopurinol 10 mg/kg
# From the text: The liver and kidney tissues fixed in paraformaldehyde were dehydrated to be transparent. Then put the transparent tissue block into the melted paraffin, and embed it after the paraffin is completely immersed in the tissue block. Fix the embedded wax block on the microtome and cut it into 5 μm thin slices. The thin slice is ironed in hot water, then pasted on the glass slide, and dried. Before staining, paraffin wax in the sections was removed with xylene, then soaked with high to low concentration alcohol, and finally soaked in distilled water for 2 min. The dewaxed and rehydrated slices were stained in hematoxylin solution for several minutes and then washed with running water. Then put the slices into 1% hydrochloric alcohol (5–10 s) and rinse with tap water, after rinsing, place the slices in distilled water. After 2 min, the slices were removed and dehydrated with […]. After dehydration, the slices were stained with alcohol eosin solution for 2–3 min. After dehydration by alcohol, xylene was used to make the slices transparent. Finally, the transparent slices were dripped with gum and sealed with a cover glass.
# Potassium oxonate (model drug), NAY (drug to be tested), and allopurinol (positive drug) were dissolved or suspended in double steaming water. […]
# [4] = test system: potassium oxonate-induced hyperuricemia mice; assay: UA, CRE and BUN in serum and urine of hyperuricemia mice; assay type: in vivo, mouse; details: allopurinol 10 mg/kg gavage, 7 days
# Method: Ninety SPF male KM mice (20 ± 2 g) were maintained in a normally controlled breeding room with standard laboratory food and water for 1 week prior to the experiments. The uricase inhibitor potassium oxonate was used to induce hyperuricemia in mice, according to previous reports ([Chen et al., 2019]).
# Potassium oxonate (model drug), NAY (drug to be tested), and allopurinol (positive drug) were dissolved or suspended in double steaming water. The drug dose used is expressed in “mg/kg.” The dose given for each dose is converted based on the body surface area conversion method. […] Except the normal control mice, others were orally administered by 250 mg/kg potassium oxonate once daily for seven consecutive days to induce hyperuricemia. […] After 7 days’ treatment, diets were removed from the cages 12 h before the animals were sacrificed. The blood was allowed to clot for approximately 1 h at room temperature and centrifuged at 3,000 rpm for 10 min to obtain serum. Serum was divided into three portions, one to detect biochemical markers such as UA, one to detect inflammatory factors, and the remaining stored at−20°C as a backup. […]
# The levels of serum UA, CRE, and BUN were measured by using the method recommended in the purchase kit. The levels of serum TNF-α, IL-6, and NLRP3 were measured by using the method recommended in the ELISA kits.
# AML12 cells = assay: Culture supernatant UA level of hyperuricemia AML12 cells; assay type: cell-based, mouse; details: allopurinol 100 μmol/L, p < 0.001
# Method: AML12 cells in logarithmic growth were digested with trypsin, and cell suspension was made by pipette blowing. After counting with a blood counting plate, the cells were diluted to 10^5 cells/mL, and 1 ml of each well was inoculated in a medium dish. The cells were placed in a 5% (V/V) CO2 cell incubator at 37 °C for 24 h. 24 h later, the cell supernatant was discarded, washed with PBS for three times, and the adenosine solution prepared with the current basic medium without fetal bovine serum as the solvent was added. The dosage of adenosine was 1.5 mmol/L, and the cells were placed in the cell culture box for further incubation for 24 h. The culture dish was taken out, 0.005 IU xanthine oxidase (XO) was added to each well, and incubated in the cell incubator for 24 h, and then the hyperuricemia liver cell model was obtained.
# AML12 cells were cultured in complete medium at 37 °C and a 5% CO2 cell incubator. Logarithmic growth cells were made into cell suspension with trypsin. The cells were inoculated into 24-well plates at the concentration of 10^5 cells/ml and cultured in a cell incubator at 37°C and 5% CO2 for 24 h. After the cells adhered to the wall, the medium in 24-well plates was discarded and washed with PBS for three times. […] After 24 h, the model and administration groups were washed with PBS for three times. […]
# [5] = Pharmacokinetics in rats (HPLC-MS/MS, WinNonlin); assay type: in vivo, SD rats
# Method: The volume of intravenous administration was 1 ml/250 g, and the volume of oral administration was 1 ml/100 g. Whole blood was collected at 2, 5, 10, 20, 30, 60, 120, 240, 360, 480, 720, and 1440 min after intravenous administration. The rats’ blood was transferred to the heparinized test tube. The whole blood was centrifuged at 8,000 rpm for 5 min, and the plasma was separated and stored in a refrigerator at -80°C for testing.
# HK-2 cells = assay: Culture supernatant UA level of hyperuricemia HK-2 cells; assay type: cell-based, human; details: allopurinol 100 μmol/L
# Method: According to the establishment method of HK-2 cells, hyperuricemia model was reported in the literature ([Hou et al., 2019]), and HK-2 cells was cultured in a complete medium in a 5% CO2, 37°C cell incubator. The cells in the logarithmic growth phase were inoculated on a 24-well plate at a concentration of 10^5 cells/ml. The cells were cultured in a 37 °C incubator for 24 h. 24 h later, discard the culture medium, and wash cells by PBS for three times. Add 2.5 mmol/L adenosine solution prepared from the incomplete medium to each well and incubate in the incubator for 24 h. Then 0.005 IU/mg XO solution was added to each well in the 24-well plate, and the supernatant was collected after incubation for 12 h. The absorbance was measured on the microplate reader using the UA kit.
# Hk-2 cells were cultured in a 5% CO2 cell incubator at 37 °C in complete medium. The cells in the logarithmic growth phase were inoculated on a 24-well plate at a concentration of 10^5 cells/ml and cultured in a 5% CO2 cell incubator at 37°C for 24 h. After 24 h, the culture medium was discarded and washed with PBS for three times. […] After 24 h, the model and drug administration groups were washed with PBS for three times, and the model and drug administration groups were added with 2.5 mmol/L adenosine solution prepared with incomplete whole medium and incubated in an incubator for 24 h. […]
# XOD [6] = assay type: cell-based, mouse; details: AML12 cells, allopurinol 100 μmol/L, p < 0.001
# [7] = allopurinol, rats, gavage 50 mg/kg, n = 3
# [8] = allopurinol, rats, gavage 50 mg/kg, single animals, 50 mg/kg
# [9] = allopurinol, rats, intravenous injection 5 mg/kg, single animals, 5 mg/kg
structure (smiles),measurement,setting,value
"O=C1c2ccccc2C(=O)c2ccccc21 [AQ, 9,10-anthraquinone]",acute oral toxicity LD50,mice,"> 5,000 mg/kg BW"
same,acute oral toxicity LD50,rats,"> 5,000 mg/kg BW"
Oc1ncnc2[nH]ncc12 [allopurinol],IL-6 level in medium supernatant,[1],could reduce the IL-6 level
same,TNF-α level in medium supernatant,[1],significantly reduced the TNF-α level
same,XOD protein expression vs model group,XOD [2],significantly reduced
same,patients who can reduce serum UA concentration to the target level,patients,less than 40%
same,liver tissue morphology (HE),[3],many inflammatory cell infiltrates with a small number of hepatocyte necrosis
same,renal tissue morphology (HE),[3],Renal cortical inflammatory cell infiltration and marked tubular luminal expansion
same,"serum UA, CRE and BUN levels vs model group",[4],obviously decreased the aforementioned indexes
same,supernatant UA level vs model group,AML12 cells,effect of the allopurinol group on reducing XOD viability and the level of supernatant UA were obvious
same,AUC(0-t),"[5]; SD, rat, plasma, iv, 5 mg/kg, allopurinol, rats, intravenous injection 5 mg/kg, n = 3, read-out: AUC (0–t), Average",1540 ng·h/mL
same,AUC(0-inf),"[5]; SD, rat, plasma, iv, 5 mg/kg, allopurinol, rats, intravenous injection 5 mg/kg, n = 3, read-out: AUC (0–∞), Average",1590 ng·h/mL
same,MRT inf,"[5]; SD, rat, plasma, iv, 5 mg/kg, allopurinol, rats, intravenous injection 5 mg/kg, n = 3, read-out: MRT (0–∞), Average",0.27 h
same,AUC(0-t),"[5]; SD, rat, plasma, iv, 5 mg/kg, allopurinol, rats, intravenous injection 5 mg/kg, single animals, read-out: AUC (0–t), individual rats 1-3",1600 ng·h/mL
same,AUC(0-inf),"[5]; SD, rat, plasma, iv, 5 mg/kg, allopurinol, rats, intravenous injection 5 mg/kg, single animals, read-out: AUC (0–∞), individual rats 1-3",1650 ng·h/mL
same,MRT inf,"[5]; SD, rat, plasma, iv, 5 mg/kg, allopurinol, rats, intravenous injection 5 mg/kg, single animals, read-out: MRT (0–∞), individual rats 1-3",0.27 h
same,AUC(0-inf),"[5]; SD, rat, plasma, iv, 5 mg/kg, allopurinol, rats, intravenous injection 5 mg/kg, read-out: AUC0-∞",1590 ± 139 ng·h/mL
same,concentration at 2 min,"[5]; SD, rat, plasma, iv, 5 mg/kg, read-out: C2min (drug concentration in plasma)",5280 ± 686 ng/mL
same,k el,"[5]; SD, rat, plasma, iv, 5 mg/kg, read-out: elimination rate constant K (converted)",0.000964 s⁻¹
same,bioavailability,"[5]; SD, rat, plasma, oral, 50 mg/kg, read-out: F",158%
same,AUC(0-t),"[5]; SD, rat, plasma, po, 50 mg/kg, allopurinol, rats, gavage 50 mg/kg, n = 3, read-out: AUC (0–t), Average",24500 ng·h/mL
same,AUC(0-inf),"[5]; SD, rat, plasma, po, 50 mg/kg, allopurinol, rats, gavage 50 mg/kg, n = 3, read-out: AUC (0–∞), Average",25100 ng·h/mL
same,Cmax,"[5]; SD, rat, plasma, po, 50 mg/kg, allopurinol, rats, gavage 50 mg/kg, n = 3, read-out: Cmax, Average",6610 ng/mL
same,MRT inf,"[5]; SD, rat, plasma, po, 50 mg/kg, allopurinol, rats, gavage 50 mg/kg, n = 3, read-out: MRT (0–∞), Average",2.36 h
same,AUC(0-t),"[5]; SD, rat, plasma, po, 50 mg/kg, allopurinol, rats, gavage 50 mg/kg, single animals, read-out: AUC (0–t), individual rats 1-3",27500 ng·h/mL
same,AUC(0-inf),"[5]; SD, rat, plasma, po, 50 mg/kg, allopurinol, rats, gavage 50 mg/kg, single animals, read-out: AUC (0–∞), individual rats 1-3",28700 ng·h/mL
same,Cmax,"[5]; SD, rat, plasma, po, 50 mg/kg, allopurinol, rats, gavage 50 mg/kg, single animals, read-out: Cmax, individual rats 1-3",6100 ng/mL
same,MRT inf,"[5]; SD, rat, plasma, po, 50 mg/kg, allopurinol, rats, gavage 50 mg/kg, single animals, read-out: MRT (0–∞), individual rats 1-3",2.88 h
same,Tmax,"[5]; SD, rat, plasma, po, 50 mg/kg, read-out: Tmax, individual rats 1-3",1 h
same,bioavailability,"[5]; SD, rat, plasma, po, 50 mg/kg, read-out: calculated bioavailability",158%
same,"Tmax, Average",[5]; [7],1.00 h
same,"V/F, Average",[5]; [7],3.18 L/kg
same,"Tmax, individual rats 1-3","[5]; allopurinol, rats, gavage 50 mg/kg, single animals",1.00 h
same,"AUC (0–t), individual rats 1-3",[5]; [8],19623.63 ng·h/mL and 26462.91 ng·h/mL
same,"AUC (0–∞), individual rats 1-3",[5]; [8],20029.34 ng·h/mL and 26666.72 ng·h/mL
same,"Cmax, individual rats 1-3",[5]; [8],"5,968.97 ug/L and 7742.83 ug/L"
same,"MRT (0–∞), individual rats 1-3",[5]; [8],1.84 h and 2.35 h
same,"V/F, individual rats 1-3",[5]; [8],3.19 L/kg and 3.81 L/kg and 2.53 L/kg
same,"V, Average","[5]; allopurinol, rats, intravenous injection 5 mg/kg, n = 3",0.92 L/kg
same,"AUC (0–t), individual rats 1-3",[5]; [9],1383.23 ng·h/mL and 1648.60 ng·h/mL
same,"AUC (0–∞), individual rats 1-3",[5]; [9],1432.09 ng·h/mL and 1687.42 ng·h/mL
same,"MRT (0–∞), individual rats 1-3",[5]; [9],0.29 h
same,"V, individual rats 1-3",[5]; [9],0.91 L/kg and 1.05 L/kg and 0.81 L/kg
same,UA levels in hyperuricemia cell model,HK-2 cells,could reduce UA levels
same,XOD activity vs model group,XOD [6],effect of the allopurinol group on reducing XOD viability and the level of supernatant UA were obvious
